Values after ≈ are worked out from the molar mass of the structure shown. “Also recorded” adds a separate entry of the source. Read-outs that look alike come from different tables or passages of the source.

For data set [1], the system named is HIV-1. Particulars: cited from earlier work.
The test system of data set [2] is HIV-1. The conditions noted are these: cited from earlier work. This is another data set of the same source.
For data set [3], the system named is HIV-1IIIb.
Method: (§6) The results of these assays are analyzed using Chou and Talalay's combination method (Chou and Talalay, 1984, Adv. Enzyme Regul. 22:27-55) and ‘Dose-Effect Analysis with Microcomputers’ software (Chou and Chou, 1987, software and manual. p19-64. Elsevier Biosoft, Cambridge, UK) in order to obtain a Combination Index. Combination Index values <1 indicates synergy, values>1 indicate antagonism and values equal to 1 indicate additive effects.
(§7) For this assay, 3×10^4 uninfected Molt4 cells are cocultivated with 3×10^3 H9/ LA1 or CEM/LA1 chronically infected cells per well in 24 well plates. Inhibitors are added on day 0, and the assay plates are re-fed on days 1 and 3 with growth medium containing the inhibitors. The assay is harvested on day 5. Antiviral activity is measured by several parameters: Western blot analysis of pelleted cells from treated cultures, RT levels, and p24 antigen levels in the supernatant.
(§8) The combined drug effects are calculated by the multiple drug analysis method of Chou and Talalay (Chou and Talalay, 1984, Adv. Enzyme Regul. 22:27-55) and ‘Dose-Effect Analysis with Microcomputers’ software (Chou and Chou, 1987, software and manual. p19-64. Elsevier Biosoft, Cambridge, UK) using the equation: [formula]
(§9) where CI is the combination index, (Dx)1 is the dose of drug 1 required to produce x percent effect alone, (D)1 is the dose of drug 1 required to produce the same x percent effect in combination with (D)2. The values of (Dx)2 and (D)2 are similarly derived from drug 2. The value of α is determined from the plot of the dose effect curve using the median effect equation:
(§10) where fa is the fraction affected by dose D, fu is the uninfected fraction, Dm is the dose required for 50% effect and m is the slope of the dose-effect curve. […] If the agents are mutually exclusive α is 0. and if they are mutually nonexclusive, α is 1. […] CI values of <1 indicate synergy, values>1 indicate antagonism and values equal to 1 indicate additive effects.
For data set [4], the system named is HIV-1IIIb. Briefly: Combination indices from in vitro HIV-1IIIb/CEM co-culture (Chou and Talalay).
Method: as §6, §7, §8, §9, §10
Data set [5] concerns HIV-1LA1. Particulars: control peptides; cited from earlier work.
A short description of data set [6]: Toxicity in in vitro studies and in animals. The source says: The present invention provides the first reported use of such peptides in combination with another antiviral or any other therapeutic agent.
Data set [7] concerns HIV-1LA1. Briefly: Cell fusion assay: syncytia formation, uninfected Molt4 cells co-cultivated with chronically HIV-1 infected CEM cells. The data set is classed as cell-based. How it is done: A cell fusion assay may be utilized to test the peptides' ability to inhibit HIV-induced syncytia formation in vitro. Such an assay may comprise culturing uninfected CD-4^+ cells (such as Molt or CEM cells, for example) in the presence of chronically HIV-infected cells and a therapeutic agent to be assayed. For each combinational therapy, a range of concentrations may be tested. […] Standard conditions for culturing, well known to those of ordinary skill in the art, are used. After incubation for an appropriate period (24 hours at 37° C., for example) the culture is examined microscopically for the presence of multinucleated giant cells, which are indicative of cell fusion and syncytia formation.
Approximately 7×10^4 Molt cells were incubated with 1×10^4CEM cells chronically infected with the HIV-1LA1 virus in 96-well plates (one-half area cluster plates; Costar, Cambridge, Mass.) in a final volume of 100 μl culture medium as previously described (Matthews, T. J. et al., 1987, Proc. Natl. Acad. Sci. USA 84: 5424-5428). Peptide inhibitors were added in a volume of 10 μl and the cell mixtures were incubated for 24 hr. at 37° C. At that time, multinucleated giant cells were estimated by microscopic examination at a 40×magnification which allowed visualization of the entire well in a single field.
The initial screen for antiviral activity assayed peptides' ability to block syncytium formation induced by overnight co-cultivation of uninfected Molt4 cells with chronically HIV-1 infected CEM cells. […] For these experiments, CEM cells chronically infected with either HIV-1LA1, HIV-1MN, HIV-1RF, or HIV-1SF2 virus were cocultivated overnight with uninfected Molt 4 cells.

For data set [8], the system named is HIV-1LA1. The method, then:
(§1) The resulting reverse transcriptase (RT) activity in counts per minute was determined using the assay described, below, in Section 6.1.5. See, Reed, L. J. et al., 1938, Am. J. Hyg. 27: 493-497 for an explanation of TCID50 calculations.
(§2) The micro-reverse transcriptase (RT) assay was adapted from Goff et al. (Goff, S. et al., 1981, J. Virol. 38:239-248) and Willey et al. (Willey, R. et al., 1988, J. Virol. 62:139-147). Supernatants from virus/cell cultures are adjusted to 1% Triton-X100. A 10 μl sample of supernatant was added to 50 μl of RT cocktail in a 96-well U-bottom microtitre plate and the samples incubated at 37° C. for 90 min. The RT cocktail contained 75 mM KCl, 2 mM dithiothreitol, 5 mM MgCl2, 5 μg/ml poly A (Pharmacia, cat. No. 27-4110-01), 0.25 units/ml oligo dT (Pharmacia, cat. No. 27-7858-01), 0.05% NP40, 50 mM Tris-HCl, pH 7.8, 0.5 μM non-radioactive dTTP, and 10 μCi/ml ^32P-dTTP (Amersham, cat. No. PB.10167).
After the incubation period, 40 μl of reaction mixture was applied to a Schleicher and Schuell (S+S) NA45 membrane (or DE81 paper) saturated in 2×SSC buffer (0.3 M NaCl and […] sodium citrate) held in a S+S Minifold over one sheet of GB003 (S+S) filter paper, with partial vacuum applied. Each well of the minifold was washed four times with 200 μl 2×SSC, under full vacuum. The membrane was removed from the minifold and washed 2 more times in a pyrex dish with an excess of 2×SSC. Finally, the membrane was drained on absorbent paper, placed on Whatman #3 paper, covered with Saran wrap, and exposed to film overnight at −70° C.
After 7 days of culture, cell-free supernatant was tested for the presence of RT activity as a measure of successful infection.

For the next data set, the system named is HIV-2NIHZ. Kind of data set: Cell free virus infection assay, CEM cells, reverse transcriptase readout. Format: cell-based. The conditions noted are these: 25 TCID50 HIV-2NIHZ, 7 days. The method, then:
as §1, §2
After the incubation period, 40 μl of reaction mixture was applied to a Schleicher and Schuell (S+S) NA45 membrane (or DE81 paper) saturated in 2×SSC buffer (0.3 M NaCl and […] sodium citrate) held in a S+S Minifold over one sheet of GB003 (S+S) filter paper, with partial vacuum applied. Each well of the minifold was washed four times with 200 μl 2×SSC, under full vacuum. […]

The next data set concerns HIV-2. Kind of data set: Cell fusion assay: HIV-2 mediated syncytia formation. Format: cell-based. The conditions noted are these: comparison HIV-1 / HIV-2, same cell type.
The next data set deals with HIV-1SF2. Briefly: Cell fusion assay: syncytia formation, Molt4 cells with chronically infected CEM cells. The data set is classed as cell-based. The conditions noted are these: HIV-1SF2 infected CEM cells. The source says:
(§3) The results of several such experiments are presented herein.

In the next data set the test system is HIV-1MN. The description is as above. Format: cell-based. Particulars: HIV-1MN infected CEM cells.
From the text: as §3

The test system of a further data set is HIV-1RF. Described as above. Format: cell-based. The conditions noted are these: HIV-1RF infected CEM cells.
From the text: as §3

Another data set deals with HIV-1/IIIb. Format: cell-based. The conditions noted are these: 5 h. The source says:
Anti-HIV assays: The antiviral assays performed were as those described, above, in Section 6.1. Assays utilized HIV-1/IIIb and/or HIV-2 NIHZ isolates. Purified peptides were used, unless otherwise noted in FIGS. 5A-5L.

Data set [9] can be described thus: Cell proliferation and toxicity assay. Particulars: human, CEM cells. Format: cell-based. How it is done: (§4) Cell proliferation and toxicity assay: Approximately 3.8×10^5 CEM cells for each peptide concentration were incubated for 3 days at 37° C. in T25 flasks. […] The concentrations of each peptide used were 0, 2.5, 10, and 40 μg/ml. Cell counts were taken at incubation times of 0, 24, 48, and 72 hours.
(§5) Additionally, cells were incubated in the absence of either peptide.

A further data set relates to CEM cells. Briefly: Cell proliferation and toxicity assay. Format: cell-based. How it is done:
as §4, §5

In the case of `CC(C)c1nc(CN(C)C(=O)N[C@H](C(=O)N[C@@H](Cc2ccccc2)C[C@H](O)[C@H](Cc2ccccc2)NC(=O)OCc2cncs2)C(C)C)cs1` [ABT-538], the “antiviral activity in vitro” value in the data set on HIV-1 [1] is given as “potent antiviral activity”. In the data set with HIV-1 [2] (AIDS patients), the CD4 lymphocyte counts result was “rise substantially” and the “plasma HIV-1 levels” value is “decrease exponentially”. In addition, the “pharmacokinetic and safety profiles in vivo” value in the data set on HIV-1 [2] (human, in vivo) is “favorable pharmokinetic and safety profiles”.
In the data set on HIV-1IIIb [3], `Cc1cn([C@H]2C[C@H](N=[N+]=[N-])[C@@H](CO)O2)c(=O)[nH]c1=O` [AZT, 3′-azido-2′,3′-dideoxythymidine] gave an EC50 of 13.1 µg/mL (≈ 49.2 µM).
In turn, `CC(C)(C)NC(=O)[C@@H]1CN(Cc2cccnc2)CCN1C[C@@H](O)C[C@@H](Cc1ccccc1)C(=O)N[C@H]1c2ccccc2C[C@H]1O` [Indinavir] came in with an EC50 in the data set on HIV-1IIIb [3] of 0.0276 µg/mL (≈ 0.045 µM).
Take `Cc1c(O)cccc1C(=O)N[C@@H](CSc1ccccc1)[C@H](O)CN1C[C@H]2CCCC[C@H]2C[C@H]1C(=O)NC(C)(C)C` [Nelfinavir, reference compound]: the EC50 turned out to be 0.0609 µg/mL with HIV-1IIIb [4] (Human immunodeficiency virus 1, read-out: Dm Drug #2 (dose required for 50% effect)) and 0.00927 µg/mL (≈ 0.0163 µM) with HIV-1IIIb [3].
Regarding `Nc1ccn([C@@H]2CS[C@H](CO)O2)c(=O)n1` [Peptide 3TC, reference compound], the “Dm Drug #2 (dose required for 50% effect)” value with HIV-1IIIb [4] (experiments T20:3TC 2:1, T20:Nelfinavir 5:1) stood at 63.73 ng/mL. This compound had an EC50 in the data set with HIV-1IIIb [3] of 0.0748 µg/mL (≈ 0.326 µM).
Consider “Ac-LQARILAVERYLKDQQQ-NH2 (N-terminus and C-terminus assumed) [DP-116]”, for which the “activity previously shown in the cell-free virus infection assay” value in the data set on HIV-1LA1 [5] is “inactive; also recorded: ineffective as a HIV inhibitor; also recorded: negative for inhibition of HIV-1 infection”.
For “Ac-NNLLRAIEAQQHLLQLTVWGIKQLQARILAVERYLKDQ-NH2 [DP-107]”, the “toxicity in in vitro studies and in animals” value in data set [6] is “non-toxic”.
For “DP-180: control peptide incorporating the amino acid residues of DP-178 in a scrambled sequence (SSESFTLLEQWNNWKLQLAEQWLEQINEKHYLEDIS; Human immunodeficiency virus) [reference compound]”, the “concentration with no evidence of anti-fusogenic activity” value in the data set with HIV-1LA1 [7] (high concentration tested) was above 40 µg/mL.
Consider Enfuvirtide, for which the “IC50, inhibition of HIV-1 infection” value in the data set with HIV-1LA1 [8] (62 TCID50 HIV-1LA1, CEM cells, 7 days) is “about 3 ng/ml”. Also, in the data set with HIV-1LA1 [8] (247 TCID50 HIV-1LA1, CEM cells, 7 days), the “IC50, inhibition of RT production from infected cells” value is 0.09 µg/mL. For the same compound, the “potency as HIV-1 inhibitor relative to HIV-2 inhibitor” value with HIV-1LA1 [8] (HIV-1LA1 vs HIV-2NIHZ, cell-free infection) is recorded as “two logs more potent”. Also, the “Dm T20 (dose required for 50% effect)” value was determined as 158.87 ng/mL in the data set on HIV-1IIIb [4] (experiment T20:3TC 1:1.5); 298.50 ng/mL in the data set on HIV-1IIIb [4] (experiment T20:3TC 2:1); 298.50 ng/mL in the data set on HIV-1IIIb [4] (experiment T20:Indinavir 10:1); 172.02 ng/mL in the data set on HIV-1IIIb [4] (experiment T20:Nelfinavir 1.33:1); 298.50 ng/mL with HIV-1IIIb [4] (experiment T20:Nelfinavir 5:1); 298.50 ng/mL with HIV-1IIIb [4] (experiment T:20:AZT 1:10). The “IC50 for HIV-2NIHZ” value in the data set on HIV-2NIHZ is listed as “much higher IC50”. Further, the “selectivity as inhibitor of HIV-1-mediated over HIV-2 mediated cell fusion” value in the data set with HIV-1LA1 [7] was found to be 4 log. The “concentration affording complete protection against syncytium formation (lowest concentration tested)” value in the data set on HIV-1LA1 [7] (HIVLA1 infected CEM cells, overnight co-cultivation) was at most 12.5 ng/mL. The “lowest effective inhibitory concentration completely blocking virus induced syncytia formation” value in the data set with HIV-1LA1 [7] (Molt4 + chronically infected CEM cells, 24 hr) lay in the range of 1 to 10 ng/mL. The “peptide concentration blocking HIV-1-mediated syncytia formation” value in the data set with HIV-1LA1 [7] (comparison HIV-1 / HIV-2) is “below 1 ng/ml”. In addition, the “concentration failing to block HIV-2 mediated syncytia formation” value in the data set with HIV-2 is above 10 µg/mL. The “concentration affording complete protection against syncytium formation (lowest concentration used)” value with HIV-1SF2, in the data set with HIV-1MN and in the data set with HIV-1RF was at most 100 ng/mL in each case.
Take H-YTSLIHSLIEESQNQQEK-OH [Peptide T-4]: the “IC50, antiviral activity” value in the data set with HIV-1/IIIb is above 400 µg/mL.
For enfuvirtide, the “toxicity in in vitro studies and in animals” value in data set [6] is on record as “non-toxic”. In addition, in data set [9] (2.5 μg/ml, 0 hours), the viability (usually the share of living cells, or the viability signal relative to a control) at 0 h, 2.5 µg/mL came out at 98%. Further, in data set [9] (2.5 μg/ml, 24 hours), the viability at 24 h, 2.5 µg/mL was found to be 93%. In addition, in data set [9] (2.5 μg/ml, 48 hours), the viability at 48 h, 2.5 µg/mL came out at 96%. In data set [9] (2.5 μg/ml, 72 hours), this compound had a viability at 72 h, 2.5 µg/mL of 96%. Moreover, the viability at 0 h, 10 µg/mL in data set [9] (10 μg/ml, 0 hours) was determined as 98%. The compound further gave a viability at 24 h, 10 µg/mL in data set [9] (10 μg/ml, 24 hours) of 97%. In addition, in data set [9] (10 μg/ml, 48 hours), the viability at 48 h, 10 µg/mL stood at 98%. The viability at 72 h, 10 µg/mL in data set [9] (10 μg/ml, 72 hours) amounted to 98%. In addition, the viability at 0 h, 40 µg/mL in data set [9] (40 μg/ml, 0 hours) is 98%. The viability at 24 h, 40 µg/mL in [9] (40 μg/ml, 24 hours) turned out to be 97%. In data set [9] (40 μg/ml, 48 hours), this compound had a viability at 48 h, 40 µg/mL of 95%. Further, the viability at 72 h, 40 µg/mL in data set [9] (40 μg/ml, 72 hours) came out at 97%. In the data set with CEM cells, the “non-cytotoxic peptide concentration relative to HIV inhibitory dose” value was “greater than 3 log”. For the same compound, in the data set with CEM cells (CEM cells, 3 days), the “concentration non-cytotoxic to cells in culture (highest tested)” value was above 40000 ng/mL. The “cytotoxic effects on cells in culture” value with CEM cells (CEM cells, up to 40 μg/ml, 3 days) is “no cytotoxic effects”.
